Source: ChEMBL document CHEMBL1914432, “Discovery of highly potent small molecule Hepatitis C Virus entry inhibitors” (Bioorg Med Chem Lett, 2011)
Activity calls are given as the source filed them. The rule behind the calls is not given here.

Legend:
[1] = system: Hepatitis C virus; assay: Antiviral activity against chronic Hepatitis C virus type 2a infected in human HuH7 cells by Renilla luciferase reporter gene assay; type: functional, organism-based, Hepacivirus hominis; settings: genotype 2a, Huh-7
[2] = Apparent volume of distribution in rat at 2 mg/kg, iv and 20 mg/kg, po; type: ADME, organism-based; settings: in vivo, read-out: Vz
[3] = Clearance in rat at 2 mg/kg, iv and 20 mg/kg, po; type: ADME, organism-based; settings: in vivo
[4] = target: T1, Scavenger receptor class B member 1 (Homo sapiens) (UniProt Q8WTV0); assay: Inhibition of human SRB1-mediated Hepatitis C virus genotype 2a entry into human 293T cells by immunoblotting; type: cell-based
T1 sequence (whole entry): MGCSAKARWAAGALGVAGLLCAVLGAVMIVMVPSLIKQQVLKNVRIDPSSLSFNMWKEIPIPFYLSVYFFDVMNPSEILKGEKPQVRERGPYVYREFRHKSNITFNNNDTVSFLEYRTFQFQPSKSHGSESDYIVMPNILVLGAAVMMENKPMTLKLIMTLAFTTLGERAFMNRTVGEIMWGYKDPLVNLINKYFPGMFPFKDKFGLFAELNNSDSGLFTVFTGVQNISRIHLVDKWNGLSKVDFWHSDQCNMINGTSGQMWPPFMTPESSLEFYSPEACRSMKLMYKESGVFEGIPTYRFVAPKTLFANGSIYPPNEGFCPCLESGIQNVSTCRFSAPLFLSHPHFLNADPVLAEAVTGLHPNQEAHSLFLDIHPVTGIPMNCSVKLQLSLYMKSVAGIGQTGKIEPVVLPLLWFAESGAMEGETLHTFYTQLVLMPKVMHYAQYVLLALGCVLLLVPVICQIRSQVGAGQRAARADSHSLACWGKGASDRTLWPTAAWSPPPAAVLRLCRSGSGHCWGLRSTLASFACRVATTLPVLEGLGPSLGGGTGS

[5] = Cmax in rat at 2 mg/kg, iv and 20 mg/kg, po; type: ADME, organism-based; settings: in vivo
[6] = AUC (all) in rat at 2 mg/kg, iv and 20 mg/kg, po; type: ADME, organism-based; settings: plasma
[7] = Half life in rat at 2 mg/kg, iv and 20 mg/kg, po; type: ADME, organism-based; settings: in vivo
[8] = Oral bioavailability in rat at 20 mg/kg; type: ADME, organism-based; settings: in vivo
[9] = system: Plasma; assay: Metabolic stability in rat plasma; type: ADME, cell-free
[10] = system: Plasma; assay: Drug metabolism in rat plasma assessed as plasma esterase-mediated formation of 9-(3-(4,6-dimethoxypyrimidin-2-ylamino)propyl-2,3,4,9-tetrahydro-1H-carbazole-6-carboxylic acid by LC-MS analysis; type: ADME, cell-free

Structure (SMILES)	IC50 [1]	further results
COC(=O)c1ccc2c(c1)c1c(n2CCCS(=O)(=O)N2CCC2)CCCC1	15 nM	
COC(=O)c1ccc2c(c1)c1c(n2CCc2nc3ccccc3[nH]2)CCCC1	5 nM	
COC(=O)c1ccc2c(c1)c1c(n2CCCN(C)c2nc(OC)cc(OC)n2)CCCC1	1.5 nM	
COC(=O)c1ccc2c(c1)c1c(n2C2CCN(c3nc(OC)cc(OC)n3)CC2)CCCC1	300 nM	
COC(=O)c1ccc2c(c1)c1c(n2CCCNS(=O)(=O)c2cc(F)cc(F)c2)CCCC1	15 nM	
COC(=O)c1ccc2c(c1)c1c(n2CCCOc2nc(C)cc(C(F)(F)F)n2)CCCC1	5 nM	
COC(=O)c1ccc2c(c1)c1c(n2CCCNc2ncccn2)CCCC1	50 nM	
COC(=O)c1ccc2c(c1)c1c(n2CCCS(=O)(=O)N(C)C)CCCC1	5 nM	
CNC(=O)c1ccc2c(c1)c1c(n2CCCNc2nc(OC)cc(OC)n2)CCCC1	10 nM	Vd [2]: 1.33 L/kg; clearance [3]: 58.2 mL/min/kg; inhibition [4]: Active; Cmax [5]: 51 ng/mL; AUC [6]: 45 ng·h/mL; half-life [7]: 28.2 min; bioavailability [8]: 0.8%; Stability [9]: Stable
CCc1cc(CC)nc(OCCCn2c3c(c4cc(C(=O)OC)ccc42)CCCC3)n1	1.5 nM	
COC(=O)c1ccc2c(c1)c1c(n2CCS(=O)(=O)N(C)C)CCCC1	> 1000 nM	
COc1cc(OC)nc(NCCCn2c3c(c4cc(C(=O)O)ccc42)CCCC3)n1		inhibition [4]: inactive; Activity ([1]; Hepacivirus hominis): inactive
COC(=O)c1ccc2c(c1)c1c(n2CCCn2cnc3ncncc32)CCCC1	50 nM	
COC(=O)c1ccc2c(c1)c1c(n2CCCN2CCOCC2)CCCC1	150 nM	
COC(=O)c1ccc2c(c1)c1c(n2CC2CCCN(c3nc(OC)cc(OC)n3)C2)CCCC1 (stereo not given)	50 nM	
COC(=O)c1ccc2c(c1)c1c(n2CCCN2C[C@@H](C)N[C@@H](C)C2)CCCC1	40 nM	
COC(=O)c1ccc2c(c1)c1c(n2CCCN2CCNC(=O)C2)CCCC1	65 nM	
COC(=O)c1ccc2c(c1)c1c(n2CCc2nc3cc(C)c(C)cc3[nH]2)CCCC1	5 nM	
COC(=O)c1ccc2c(c1)c1c(n2CCCNc2nc(OC)cc(OC)n2)CCCC1	1.5 nM	Drug metabolism [10]: Active; inhibition [4]: Active
COC(=O)c1ccc2c(c1)c1c(n2CCCS(=O)(=O)N2CCCCC2)CCCC1	30 nM	
COC(=O)c1ccc2c(c1)c1c(n2CCCNS(=O)(=O)C(C)C)CCCC1	50 nM	

Structure (SMILES)	IC50 [1]	further results
COC(=O)c1ccc2c(c1)c1c(n2CCCS(=O)(=O)N2C[C@@H](C)O[C@@H](C)C2)CCCC1	150 nM	
COC(=O)c1ccc2c(c1)c1c(n2CCCNc2nc(C)cc(C(=O)OC)n2)CCCC1	30 nM	
COC(=O)c1ccc2c(c1)c1c(n2CCCNc2cc(C)nc(Cl)n2)CCCC1	30 nM	
COc1cc(OC)nc(NCCCn2c3c(c4cc(C(=O)N(C)C)ccc42)CCCC3)n1	30 nM	Vd [2]: 2.05 L/kg; clearance [3]: 45 mL/min/kg; inhibition [4]: Active; Cmax [5]: 51 ng/mL; AUC [6]: 41 ng·h/mL; half-life [7]: 33 min; bioavailability [8]: 0.6%; Stability [9]: Stable
COC(=O)c1ccc2c(c1)c1c(n2CCCn2cncc2C)CCCC1	310 nM	
COC(=O)c1ccc2c(c1)c1c(n2CC2CCN(c3nc(OC)cc(OC)n3)CC2)CCCC1	15 nM	
COC(=O)c1ccc2c(c1)c1c(n2CCCNc2nc(OC)nc(OC)n2)CCCC1	15 nM	
COC(=O)c1ccc2c(c1)c1c(n2CCCNc2nccc(OC)n2)CCCC1	15 nM	
COC(=O)c1ccc2c(c1)c1c(n2CCCCNc2nc(OC)cc(OC)n2)CCCC1	30 nM	
CCN(CC)C(=O)c1ccc2c(c1)c1c(n2CCCNc2nc(OC)cc(OC)n2)CCCC1	50 nM	Stability [9]: Stable
COC(=O)c1ccc2c(c1)c1c(n2CCCOc2nc(OC)cc(OC)n2)CCCC1	0.6 nM	
COC(=O)c1ccc2c(c1)c1c(n2CCCOc2cc(Cl)nc(C)n2)CCCC1	1.5 nM	
COC(=O)c1ccc2c(c1)c1c(n2CCCN2CCCC(C(=O)N(C)C)C2)CCCC1 (stereo not given)	50 nM	
COC(=O)c1ccc2c(c1)c1c(n2CCCS(=O)(=O)c2ccccc2)CCCC1	50 nM	
COc1cc(OC)nc(NCCCn2c3c(c4cc(C(=O)NC(C)C)ccc42)CCCC3)n1	150 nM	Stability [9]: Stable
COC(=O)c1ccc2c(c1)c1c(n2CCCn2ccnc2)CCCC1	170 nM	
COC(=O)c1ccc2c(c1)c1c(n2CCCC(=O)N(C)C)CCCC1	300 nM	
COC(=O)c1ccc2c(c1)c1c(n2CCCN2C[C@@H](C)O[C@@H](C)C2)CCCC1	25 nM	
COc1cc(OC)nc(NCCCn2c3c(c4cc(C(=O)OC(C)C)ccc42)CCCC3)n1	10 nM	Vd [2]: 17.6 L/kg; clearance [3]: 71.8 mL/min/kg; inhibition [4]: Active; Cmax [5]: 547 ng/mL; AUC [6]: 896 ng·h/mL; half-life [7]: 74.4 min; bioavailability [8]: 19%; Stability [9]: Stable
COC(=O)c1ccc2c(c1)c1c(n2CCCS(=O)(=O)N2CCOCC2)CCCC1	15 nM	
